Molecular target: acetyl-CoA carboxylase (ACC, POD-2) (Caenorhabditis elegans, UniProt H2L0M0)
Experiment: real-time HPLC and NMR kinetics of malonyl-CoA formation with partially purified enzyme extract; Ki estimated from the change in KM
Type: biochemical

acetyl-CoA carboxylase (ACC, POD-2), sequence (H2L0M0 entry or part of it): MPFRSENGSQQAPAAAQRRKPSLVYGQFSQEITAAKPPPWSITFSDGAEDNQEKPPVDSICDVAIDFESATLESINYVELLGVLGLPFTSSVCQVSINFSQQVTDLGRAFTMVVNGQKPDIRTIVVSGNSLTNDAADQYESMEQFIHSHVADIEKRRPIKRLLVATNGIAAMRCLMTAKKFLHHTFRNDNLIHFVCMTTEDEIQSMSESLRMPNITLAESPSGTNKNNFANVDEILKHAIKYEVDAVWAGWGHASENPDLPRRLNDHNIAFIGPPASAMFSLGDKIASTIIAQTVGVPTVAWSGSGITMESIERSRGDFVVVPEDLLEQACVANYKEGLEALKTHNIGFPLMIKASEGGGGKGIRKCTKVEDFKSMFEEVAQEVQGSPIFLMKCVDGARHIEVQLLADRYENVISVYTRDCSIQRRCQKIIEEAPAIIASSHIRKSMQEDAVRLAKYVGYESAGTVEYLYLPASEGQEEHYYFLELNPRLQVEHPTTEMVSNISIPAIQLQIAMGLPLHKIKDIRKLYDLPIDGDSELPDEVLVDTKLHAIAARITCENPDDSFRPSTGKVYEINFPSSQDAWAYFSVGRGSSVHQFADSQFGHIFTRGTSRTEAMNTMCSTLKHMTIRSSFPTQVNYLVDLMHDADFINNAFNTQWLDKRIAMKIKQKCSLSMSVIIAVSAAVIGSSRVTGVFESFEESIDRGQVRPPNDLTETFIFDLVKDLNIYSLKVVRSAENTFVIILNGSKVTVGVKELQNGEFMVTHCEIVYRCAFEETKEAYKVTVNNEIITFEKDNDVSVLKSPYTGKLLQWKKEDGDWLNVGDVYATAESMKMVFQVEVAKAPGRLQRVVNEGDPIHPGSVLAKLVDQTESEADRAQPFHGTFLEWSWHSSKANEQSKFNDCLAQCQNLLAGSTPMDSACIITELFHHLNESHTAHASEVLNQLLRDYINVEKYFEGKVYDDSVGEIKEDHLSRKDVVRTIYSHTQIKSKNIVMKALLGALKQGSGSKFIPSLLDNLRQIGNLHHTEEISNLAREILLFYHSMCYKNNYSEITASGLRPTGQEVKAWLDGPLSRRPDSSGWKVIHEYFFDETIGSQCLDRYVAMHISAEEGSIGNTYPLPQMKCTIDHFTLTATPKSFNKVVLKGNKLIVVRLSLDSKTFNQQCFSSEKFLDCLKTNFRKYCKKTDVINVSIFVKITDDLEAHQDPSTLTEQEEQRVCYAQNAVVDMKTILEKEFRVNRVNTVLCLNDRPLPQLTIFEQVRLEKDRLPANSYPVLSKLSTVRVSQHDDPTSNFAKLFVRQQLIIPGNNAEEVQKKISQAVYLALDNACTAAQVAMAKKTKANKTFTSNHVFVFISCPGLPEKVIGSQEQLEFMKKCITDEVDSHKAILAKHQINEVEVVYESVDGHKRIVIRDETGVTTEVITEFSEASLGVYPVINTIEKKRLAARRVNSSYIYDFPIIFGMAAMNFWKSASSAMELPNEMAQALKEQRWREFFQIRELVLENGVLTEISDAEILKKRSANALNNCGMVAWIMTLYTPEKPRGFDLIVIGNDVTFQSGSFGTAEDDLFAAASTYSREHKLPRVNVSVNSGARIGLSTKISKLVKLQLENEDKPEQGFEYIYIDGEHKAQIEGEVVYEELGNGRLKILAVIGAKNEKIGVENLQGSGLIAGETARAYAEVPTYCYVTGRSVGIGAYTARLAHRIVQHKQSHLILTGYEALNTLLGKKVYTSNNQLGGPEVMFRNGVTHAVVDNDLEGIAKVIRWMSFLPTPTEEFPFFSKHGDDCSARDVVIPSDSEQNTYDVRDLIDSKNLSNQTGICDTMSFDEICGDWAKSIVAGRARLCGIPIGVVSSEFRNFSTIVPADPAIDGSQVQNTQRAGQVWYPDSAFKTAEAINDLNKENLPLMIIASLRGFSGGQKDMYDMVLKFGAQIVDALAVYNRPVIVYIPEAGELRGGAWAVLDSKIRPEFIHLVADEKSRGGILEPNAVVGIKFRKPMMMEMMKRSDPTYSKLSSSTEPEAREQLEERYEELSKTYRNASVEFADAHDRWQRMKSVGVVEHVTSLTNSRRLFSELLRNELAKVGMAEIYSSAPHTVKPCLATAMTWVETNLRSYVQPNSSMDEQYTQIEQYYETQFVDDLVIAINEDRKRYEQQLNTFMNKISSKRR

Ki: ~12.5 µM
Compound: C=CCCCCCCCCCCC[C@@H](O)C[C@@H](O)COC(C)=O [avocadene acetate]

From publication PMC12435777, “Assessing Acetyl-Coenzyme A Carboxylase Activity and Inhibition in Caenorhabtidis elegans Using a Partially Purified Protein Extract” (Analytical Chemistry, 2025)
